Results taken from US10413505B1, “Pharmaceutical compositions and methods of using the same” (priority 2017, dated 2019).
Read-outs that look alike come from different tables or passages of the source.

How the values were obtained:
[1] = Example 3 urinary pharmacokinetics, normal hepatic function vs hepatic impairment; assay type: in vivo, human; conditions: for Urine Recovery as % of Dose, Geomean / Urine Recovery as % of Dose, Mean: 0-32 h, single intranasal dose; for CL renal: both sexes, other: intranasal (drug-soaked pledgets in the nasal cavity), 160 mg; for CL renal / dose excreted: human, urine; for dose excreted: other: intranasal, read-out: 0-32 h urinary recovery of unchanged drug as percent of the administered dose
Experimental: Urine was collected prior to dosing and from 0-2, 2-4, 4-8, 8-12, 12-24, and 24-32 hours after beginning of dose application. […] Urinary pharmacokinetic parameters included total urinary recovery (μg), urinary recovery as a percentage of dose, and CLr.

[2] = topical application with cotton pledgets; cited from earlier work
[3] = Literature disposition of cocaine (intravenous clearance, urinary elimination); assay type: in vivo, human; conditions: humans
Text: In humans, cocaine is eliminated predominantly by metabolism, with little excreted unchanged in the urine. Only 1% to 10% of a dose of cocaine is eliminated unmetabolized in urine.

[4] = Example 2 plasma pharmacokinetics, normal renal function vs severe renal impairment; conditions: for AUC(0-t) / AUC(0-inf) / Cmax / Tmax / half-life: both, human, plasma, 160 mg
[5] = normal hepatic function, single intranasal 160 mg cocaine HCl
[6] = subjects with hepatic impairment, 32 hours post administration

SMILES: COC(=O)[C@H]1[C@@H](OC(=O)c2ccccc2)C[C@@H]2CC[C@H]1N2C [Cocaine, cocaine, reference compound]
- Urine Recovery as % of Dose, Geomean ([1]; Impaired hepatic function): 0.071 % of Dose
- Urine Recovery as % of Dose, Mean ([1]; Impaired hepatic function): 0.143 % of Dose
- Urine Recovery as % of Dose, Geomean ([1]; Normal hepatic function): 0.057 % of Dose
- Urine Recovery as % of Dose, Mean ([1]; Normal hepatic function): 0.072 % of Dose
- CL renal ([1]; Impaired hepatic function, Table 26, read-out: CLr Geomean (converted)): 7.8 mL/min
- CL renal ([1]; Impaired hepatic function, Table 26, read-out: CLr Mean (converted)): 16.6 mL/min
- CL renal ([1]; Normal hepatic function, Table 26, read-out: CLr Geomean (converted)): 19.5 mL/min
- CL renal ([1]; Normal hepatic function, Table 26, read-out: CLr Mean (converted)): 29.8 mL/min
- CL renal ([1]; hepatically impaired patients, 32 hours from administration, read-out: renal clearance, range observed): 1.27 to 32 mL/min
- CL renal ([1]; subjects with hepatic impairment, Table 30, read-out: Renal Clearance, geometric mean (converted)): 7.79 mL/min
- CL renal ([1]; subjects with hepatic impairment, Table 30, read-out: Renal Clearance, mean (converted)): 16.6 mL/min
- CL renal ([1]; subjects with hepatic impairment, Table 30, read-out: Renal Clearance, median (converted)): 15.6 mL/min
- CL renal ([1]; subjects with hepatic impairment, read-out: Renal Clearance, geometric mean (converted)): 7.79 mL/min
- CL renal ([1]; subjects with hepatic impairment, read-out: Renal Clearance, mean (converted)): 16.6 mL/min
- CL renal ([1]; subjects with hepatic impairment, read-out: Renal Clearance, median (converted)): 15.6 mL/min
- CL renal ([1]; subjects with normal hepatic function, Table 29, read-out: Renal Clearance, geometric mean (converted)): 19.5 mL/min
- CL renal ([1]; subjects with normal hepatic function, Table 29, read-out: Renal Clearance, mean (converted)): 29.8 mL/min
- CL renal ([1]; subjects with normal hepatic function, Table 29, read-out: Renal Clearance, median (converted)): 22 mL/min
- CL renal ([1]; subjects with normal hepatic function, read-out: Renal Clearance, geometric mean (converted)): 19.5 mL/min
- CL renal ([1]; subjects with normal hepatic function, read-out: Renal Clearance, mean (converted)): 29.8 mL/min
- CL renal ([1]; subjects with normal hepatic function, read-out: Renal Clearance, median (converted)): 22 mL/min
- dose excreted ([1]; hepatic impairment): 0.071%
- dose excreted ([1]; normal hepatic function): 0.057%
- 0-32 h Urinary Recovery (geometric mean) [1, 5]: 81.5 µg
- 0-32 h Urinary Recovery (mean) [1, 5]: 102.25 µg
- 0-32 h Urinary Recovery (median) [1, 5]: 108.1 µg
- 0-32 h Urinary Recovery (geometric mean) [1, 6]: 101.4 µg
- 0-32 h Urinary Recovery (mean) [1, 6]: 204 µg
- 0-32 h Urinary Recovery (median) [1, 6]: 193.5 µg
- fraction absorbed from a cottonoid pledget [2]: approximately 37%
- CLr as percent of CL [3]: less than 2%
- CLr as percent of human glomerular filtration rate (125 mL/min) [3]: less than 40%
- CL/F (Geometric Least Squares Mean, ANOVA) ([4]; Impaired renal function (severe), single intranasal 160 mg cocaine HCl): 1333 L/h
- AUC(0-t) ([4]; inhaled or intranasal, AUC0→t (Geometric mean), normal renal function, single intranasal 160 mg cocaine HCl): 78.7 ng·h/mL
- AUC(0-t) ([4]; inhaled or intranasal, AUC0→t (Geometric mean), severe renal impairment, single intranasal 160 mg cocaine HCl): 106 ng·h/mL
- AUC(0-t) ([4]; inhaled or intranasal, AUC0→t (Mean), normal renal function, single intranasal 160 mg cocaine HCl): 83.5 ng·h/mL
- AUC(0-t) ([4]; inhaled or intranasal, AUC0→t (Mean), severe renal impairment, single intranasal 160 mg cocaine HCl): 119 ng·h/mL
- AUC(0-t) ([4]; inhaled or intranasal, AUC0→t (Median), normal renal function, single intranasal 160 mg cocaine HCl): 91.6 ng·h/mL
- AUC(0-t) ([4]; inhaled or intranasal, AUC0→t (Median), severe renal impairment, single intranasal 160 mg cocaine HCl): 109 ng·h/mL
- AUC(0-inf) ([4]; inhaled or intranasal, AUC0→∞ (Geometric mean), normal renal function, single intranasal 160 mg cocaine HCl): 80.5 ng·h/mL
- AUC(0-inf) ([4]; inhaled or intranasal, AUC0→∞ (Geometric mean), severe renal impairment, single intranasal 160 mg cocaine HCl): 107 ng·h/mL
- AUC(0-inf) ([4]; inhaled or intranasal, AUC0→∞ (Mean), normal renal function, single intranasal 160 mg cocaine HCl): 85 ng·h/mL
- AUC(0-inf) ([4]; inhaled or intranasal, AUC0→∞ (Mean), severe renal impairment, single intranasal 160 mg cocaine HCl): 120 ng·h/mL
- AUC(0-inf) ([4]; inhaled or intranasal, AUC0→∞ (Median), normal renal function, single intranasal 160 mg cocaine HCl): 92.9 ng·h/mL
- AUC(0-inf) ([4]; inhaled or intranasal, AUC0→∞ (Median), severe renal impairment, single intranasal 160 mg cocaine HCl): 110 ng·h/mL
- AUC(0-t) ([4]; inhaled or intranasal, AUClast (Geometric Least Squares Mean, ANOVA), Impaired renal function (severe), single intranasal 160 mg cocaine HCl): 106 ng·h/mL
- AUC(0-t) ([4]; inhaled or intranasal, AUClast (Geometric Least Squares Mean, ANOVA), Normal renal function, single intranasal 160 mg cocaine HCl): 78.7 ng·h/mL
- Cmax ([4]; inhaled or intranasal, Cmax (Geometric Least Squares Mean, ANOVA), Impaired renal function (severe), single intranasal 160 mg cocaine HCl): 47.9 ng/mL
- Cmax ([4]; inhaled or intranasal, Cmax (Geometric Least Squares Mean, ANOVA), Normal renal function, single intranasal 160 mg cocaine HCl): 35.9 ng/mL
- Cmax ([4]; inhaled or intranasal, Cmax (Geometric mean), normal renal function, single intranasal 160 mg cocaine HCl): 35.9 ng/mL
- Cmax ([4]; inhaled or intranasal, Cmax (Geometric mean), severe renal impairment, single intranasal 160 mg cocaine HCl): 47.9 ng/mL
- Cmax ([4]; inhaled or intranasal, Cmax (Mean), normal renal function, single intranasal 160 mg cocaine HCl): 38.1 ng/mL
- Cmax ([4]; inhaled or intranasal, Cmax (Mean), severe renal impairment, single intranasal 160 mg cocaine HCl): 57.8 ng/mL
- Cmax ([4]; inhaled or intranasal, Cmax (Median), normal renal function, single intranasal 160 mg cocaine HCl): 37 ng/mL
- Cmax ([4]; inhaled or intranasal, Cmax (Median), severe renal impairment, single intranasal 160 mg cocaine HCl): 55.4 ng/mL
- Cmax ([4]; inhaled or intranasal, Cmax, range observed, renally impaired patients, soaked absorbent articles on nasal mucous membranes): 21.9 to 93.7 ng/mL
- Tmax ([4]; inhaled or intranasal, Tmax (Geometric mean), normal renal function, single intranasal 160 mg cocaine HCl): 31.1 min
- Tmax ([4]; inhaled or intranasal, Tmax (Geometric mean), severe renal impairment, single intranasal 160 mg cocaine HCl): 25.7 min
- Tmax ([4]; inhaled or intranasal, Tmax (Mean), normal renal function, single intranasal 160 mg cocaine HCl): 35 min
- Tmax ([4]; inhaled or intranasal, Tmax (Mean), severe renal impairment, single intranasal 160 mg cocaine HCl): 26.9 min
- Tmax ([4]; inhaled or intranasal, Tmax (Median), severe renal impairment, single intranasal 160 mg cocaine HCl): 25 min
- Tmax ([4]; inhaled or intranasal, median Tmax, normal renal function, single intranasal 160 mg cocaine HCl): 30 min
- half-life ([4]; inhaled or intranasal, t1/2 (Geometric mean), normal renal function, single intranasal 160 mg cocaine HCl): 247 min
- half-life ([4]; inhaled or intranasal, t1/2 (Geometric mean), severe renal impairment, single intranasal 160 mg cocaine HCl): 325 min
- half-life ([4]; inhaled or intranasal, t1/2 (Mean), normal renal function, single intranasal 160 mg cocaine HCl): 300 min
- half-life ([4]; inhaled or intranasal, t1/2 (Mean), severe renal impairment, single intranasal 160 mg cocaine HCl): 361 min
- half-life ([4]; inhaled or intranasal, t1/2 (Median), normal renal function, single intranasal 160 mg cocaine HCl): 233 min
- half-life ([4]; inhaled or intranasal, t1/2 (Median), severe renal impairment, single intranasal 160 mg cocaine HCl): 383 min
- AUC(0-inf) ([4]; other: intranasal (drug-soaked pledgets in the nasal cavity), AUCinf, range observed, renally impaired patients): 61.2 to 180 ng·h/mL
- Tmax ([4]; other: intranasal (drug-soaked pledgets in the nasal cavity), Tmax, range observed, renally impaired patients): 18.1 to 35.7 min
- CL/F (Geometric Least Squares Mean, ANOVA) ([4]; normal renal function, single intranasal 160 mg cocaine HCl): 1774 L/h
